Source: patent publication US10100282B2, “Differentiation of pluripotent cells” (FUJIFILM Cellular Dynamics, Inc., priority 2009, dated 2018)

Test system: hESCs
Experiment: Cytokine matrix: serum-free EB hematopoietic differentiation, surface markers by flow cytometry
Format: cell-based, human
Method: Cells were collected from each well/condition and washed once with media. The cell pellet was digested using TrypLE™ or 0.5% trypsin for 5-10 minutes in a 37° C. incubator followed by washes with media and passage through a 70-μm cell strainer. […] Non-viable cells were excluded with 7-aminoactinomycin D (7-AAD, BD Biosciences). Live cell analysis was performed on a FACSCalibur™ or Accuri flow cytometer and Cell Quest software. hESCs adapted to feeder free growth on matrigel maintained using mTESR were preconditioned for three days in the presence of X-vivo-15 containing 0.1 ng/ml TGF-β and 20 ng/ml FGF-2. Cells were harvested using TrypLE for 6 minutes at 37 C. TrypLE™ was neutralized using EB basal media containing 1 μM ROCK inhibitor (H-1152), Soybean trypsin inhibitor (0.25 mg/ml). The cells were washed once in EB basal media containing 1 μM ROCK inhibitor and soybean trypsin inhibitor (0.25 mg/ml). The cells were plated in low attachment plates in EB basal media containing 1 μM ROCK inhibitor and soybean trypsin inhibitor (0.25 mg/ml). The media was changed the next day to EB basal media containing different cytokine formulations. […] The cytokine combinations used are listed below in Table 3. The EB cultures were half fed with fresh differentiation media every two days. The EB cultures were harvested on day 8, 12 and 17 of differentiation. The EB cultures were harvested by spinning down all the cells and digesting the EBs with TrypLE™ or 0.5% trypsin. The phenotype of the progenitor cell types was analyzed by flow cytometry and the cells were plated in methylcellulose media for CFU assays. “FLT3” refers to the Flt3 ligand below.

Substance: GMCSF: Granulocyte-macrophage colony-stimulating factor
- CD31 expressing cells (DAY 8, factor ABSENT): 0.4%
- CD34 expressing cells (DAY 8, factor ABSENT): 1.0%
- CD43 expressing cells (DAY 8, factor ABSENT): 0.3%
- CD45 expressing cells (DAY 8, factor ABSENT): 0.2%
- FLK-1 expressing cells (DAY 8, factor ABSENT): 2.2%
- CD31 expressing cells (DAY 8, factor PRESENT): 1.1%
- CD34 expressing cells (DAY 8, factor PRESENT): 1.3%
- CD43 expressing cells (DAY 8, factor PRESENT): 1.4%
- CD45 expressing cells (DAY 8, factor PRESENT): 0.2%
- FLK-1 expressing cells (DAY 8, factor PRESENT): 1.7%
- CD31 expressing cells (DAY 12, factor ABSENT): 1.5%
- CD34 expressing cells (DAY 12, factor ABSENT): 1.0%
- CD43 expressing cells (DAY 12, factor ABSENT): 1.4%
- CD45 expressing cells (DAY 12, factor ABSENT): 1.3%
- FLK-1 expressing cells (DAY 12, factor ABSENT): 0.6%
- CD31 expressing cells (DAY 12, factor PRESENT): 2.4%
- CD34 expressing cells (DAY 12, factor PRESENT): 2.4%
- CD43 expressing cells (DAY 12, factor PRESENT): 3.0%
- CD45 expressing cells (DAY 12, factor PRESENT): 2.6%
- FLK-1 expressing cells (DAY 12, factor PRESENT): 0.4%
- CD31 expressing cells (DAY 17, factor ABSENT): 1.6%
- CD34 expressing cells (DAY 17, factor ABSENT): 2.1%
- CD43 expressing cells (DAY 17, factor ABSENT): 1.4%
- CD45 expressing cells (DAY 17, factor ABSENT): 0.9%
- FLK-1 expressing cells (DAY 17, factor ABSENT): 1.4%
- CD31 expressing cells (DAY 17, factor PRESENT): 11.3%
- CD34 expressing cells (DAY 17, factor PRESENT): 2.8%
- CD43 expressing cells (DAY 17, factor PRESENT): 12.1%
- CD45 expressing cells (DAY 17, factor PRESENT): 12.3%
- FLK-1 expressing cells (DAY 17, factor PRESENT): 2.3%
- role during EB differentiation (serum free hematopoietic differentiation, days 8, 12, 17): play a role during later stages of EB differentiation

Substance: IL6: Interleukin-6, a pro-inflammatory cytokine
- CD31 expressing cells (DAY 8, factor ABSENT): 0.8%
- CD34 expressing cells (DAY 8, factor ABSENT): 0.9%
- CD43 expressing cells (DAY 8, factor ABSENT): 0.8%
- CD45 expressing cells (DAY 8, factor ABSENT): 0.2%
- FLK-1 expressing cells (DAY 8, factor ABSENT): 1.2%
- CD31 expressing cells (DAY 8, factor PRESENT): 0.8%
- CD34 expressing cells (DAY 8, factor PRESENT): 1.4%
- CD43 expressing cells (DAY 8, factor PRESENT): 1.0%
- CD45 expressing cells (DAY 8, factor PRESENT): 0.2%
- FLK-1 expressing cells (DAY 8, factor PRESENT): 2.6%
- CD31 expressing cells (DAY 12, factor ABSENT): 1.4%
- CD34 expressing cells (DAY 12, factor ABSENT): 1.7%
- CD43 expressing cells (DAY 12, factor ABSENT): 1.2%
- CD45 expressing cells (DAY 12, factor ABSENT): 1.5%
- FLK-1 expressing cells (DAY 12, factor ABSENT): 0.5%
- CD31 expressing cells (DAY 12, factor PRESENT): 2.5%
- CD34 expressing cells (DAY 12, factor PRESENT): 2.6%
- CD43 expressing cells (DAY 12, factor PRESENT): 3.2%
- CD45 expressing cells (DAY 12, factor PRESENT): 2.4%
- FLK-1 expressing cells (DAY 12, factor PRESENT): 0.5%
- CD31 expressing cells (DAY 17, factor ABSENT): 3.8%
- CD34 expressing cells (DAY 17, factor ABSENT): 1.8%
- CD43 expressing cells (DAY 17, factor ABSENT): 4.1%
- CD45 expressing cells (DAY 17, factor ABSENT): 4.1%
- FLK-1 expressing cells (DAY 17, factor ABSENT): 1.1%
- CD31 expressing cells (DAY 17, factor PRESENT): 9.4%
- CD34 expressing cells (DAY 17, factor PRESENT): 3.0%
- CD43 expressing cells (DAY 17, factor PRESENT): 9.9%
- CD45 expressing cells (DAY 17, factor PRESENT): 9.6%
- FLK-1 expressing cells (DAY 17, factor PRESENT): 2.5%

Substance: TPO: Thrombopoietin, a glycoprotein hormone
- CD31 expressing cells (DAY 8, factor ABSENT): 0.8%
- CD34 expressing cells (DAY 8, factor ABSENT): 1.0%
- CD43 expressing cells (DAY 8, factor ABSENT): 1.0%
- CD45 expressing cells (DAY 8, factor ABSENT): 0.2%
- FLK-1 expressing cells (DAY 8, factor ABSENT): 1.9%
- CD31 expressing cells (DAY 8, factor PRESENT): 0.8%
- CD34 expressing cells (DAY 8, factor PRESENT): 1.3%
- CD43 expressing cells (DAY 8, factor PRESENT): 0.8%
- CD45 expressing cells (DAY 8, factor PRESENT): 0.2%
- FLK-1 expressing cells (DAY 8, factor PRESENT): 1.9%
- CD31 expressing cells (DAY 12, factor ABSENT): 2.3%
- CD34 expressing cells (DAY 12, factor ABSENT): 2.2%
- CD43 expressing cells (DAY 12, factor ABSENT): 2.2%
- CD45 expressing cells (DAY 12, factor ABSENT): 2.6%
- FLK-1 expressing cells (DAY 12, factor ABSENT): 0.7%
- CD31 expressing cells (DAY 12, factor PRESENT): 1.7%
- CD34 expressing cells (DAY 12, factor PRESENT): 2.2%
- CD43 expressing cells (DAY 12, factor PRESENT): 2.3%
- CD45 expressing cells (DAY 12, factor PRESENT): 1.5%
- FLK-1 expressing cells (DAY 12, factor PRESENT): 0.3%
- CD31 expressing cells (DAY 17, factor ABSENT): 4.8%
- CD34 expressing cells (DAY 17, factor ABSENT): 2.5%
- CD43 expressing cells (DAY 17, factor ABSENT): 4.8%
- CD45 expressing cells (DAY 17, factor ABSENT): 4.9%
- FLK-1 expressing cells (DAY 17, factor ABSENT): 1.7%
- CD31 expressing cells (DAY 17, factor PRESENT): 8.6%
- CD34 expressing cells (DAY 17, factor PRESENT): 2.4%
- CD43 expressing cells (DAY 17, factor PRESENT): 9.2%
- CD45 expressing cells (DAY 17, factor PRESENT): 8.8%
- FLK-1 expressing cells (DAY 17, factor PRESENT): 2.0%

Substance: EPO: Erythropoietin
- CD31 expressing cells (DAY 8, factor ABSENT): 0.8%
- CD34 expressing cells (DAY 8, factor ABSENT): 1.2%
- CD43 expressing cells (DAY 8, factor ABSENT): 1.0%
- CD45 expressing cells (DAY 8, factor ABSENT): 0.2%
- FLK-1 expressing cells (DAY 8, factor ABSENT): 2.2%
- CD31 expressing cells (DAY 8, factor PRESENT): 0.7%
- CD34 expressing cells (DAY 8, factor PRESENT): 1.1%
- CD43 expressing cells (DAY 8, factor PRESENT): 0.8%
- CD45 expressing cells (DAY 8, factor PRESENT): 0.2%
- FLK-1 expressing cells (DAY 8, factor PRESENT): 1.7%
- CD31 expressing cells (DAY 12, factor ABSENT): 2.2%
- CD34 expressing cells (DAY 12, factor ABSENT): 2.4%
- CD43 expressing cells (DAY 12, factor ABSENT): 2.1%
- CD45 expressing cells (DAY 12, factor ABSENT): 2.6%
- FLK-1 expressing cells (DAY 12, factor ABSENT): 0.8%
- CD31 expressing cells (DAY 12, factor PRESENT): 1.8%
- CD34 expressing cells (DAY 12, factor PRESENT): 2.0%
- CD43 expressing cells (DAY 12, factor PRESENT): 2.4%
- CD45 expressing cells (DAY 12, factor PRESENT): 1.5%
- FLK-1 expressing cells (DAY 12, factor PRESENT): 0.2%
- CD31 expressing cells (DAY 17, factor ABSENT): 4.6%
- CD34 expressing cells (DAY 17, factor ABSENT): 2.5%
- CD43 expressing cells (DAY 17, factor ABSENT): 5.0%
- CD45 expressing cells (DAY 17, factor ABSENT): 4.8%
- FLK-1 expressing cells (DAY 17, factor ABSENT): 1.6%
- CD31 expressing cells (DAY 17, factor PRESENT): 8.8%
- CD34 expressing cells (DAY 17, factor PRESENT): 2.4%
- CD43 expressing cells (DAY 17, factor PRESENT): 9.1%
- CD45 expressing cells (DAY 17, factor PRESENT): 8.9%
- FLK-1 expressing cells (DAY 17, factor PRESENT): 2.1%

Substance: SCF: Stem cell factor, a cytokine which binds CD117 (c-Kit)
- CD31 expressing cells (DAY 8, factor ABSENT): 0.7%
- CD34 expressing cells (DAY 8, factor ABSENT): 0.8%
- CD43 expressing cells (DAY 8, factor ABSENT): 0.8%
- CD45 expressing cells (DAY 8, factor ABSENT): 0.2%
- FLK-1 expressing cells (DAY 8, factor ABSENT): 1.9%
- CD31 expressing cells (DAY 8, factor PRESENT): 0.9%
- CD34 expressing cells (DAY 8, factor PRESENT): 1.5%
- CD43 expressing cells (DAY 8, factor PRESENT): 1.0%
- CD45 expressing cells (DAY 8, factor PRESENT): 0.2%
- FLK-1 expressing cells (DAY 8, factor PRESENT): 2.0%
- CD31 expressing cells (DAY 12, factor ABSENT): 1.3%
- CD34 expressing cells (DAY 12, factor ABSENT): 1.7%
- CD43 expressing cells (DAY 12, factor ABSENT): 1.2%
- CD45 expressing cells (DAY 12, factor ABSENT): 1.5%
- FLK-1 expressing cells (DAY 12, factor ABSENT): 0.3%
- CD31 expressing cells (DAY 12, factor PRESENT): 2.6%
- CD34 expressing cells (DAY 12, factor PRESENT): 2.6%
- CD43 expressing cells (DAY 12, factor PRESENT): 3.2%
- CD45 expressing cells (DAY 12, factor PRESENT): 2.4%
- FLK-1 expressing cells (DAY 12, factor PRESENT): 0.6%
- CD31 expressing cells (DAY 17, factor ABSENT): 3.9%
- CD34 expressing cells (DAY 17, factor ABSENT): 2.3%
- CD43 expressing cells (DAY 17, factor ABSENT): 4.1%
- CD45 expressing cells (DAY 17, factor ABSENT): 4.0%
- FLK-1 expressing cells (DAY 17, factor ABSENT): 1.4%
- CD31 expressing cells (DAY 17, factor PRESENT): 9.3%
- CD34 expressing cells (DAY 17, factor PRESENT): 2.6%
- CD43 expressing cells (DAY 17, factor PRESENT): 9.8%
- CD45 expressing cells (DAY 17, factor PRESENT): 9.6%
- FLK-1 expressing cells (DAY 17, factor PRESENT): 2.2%
